Test results: US10888551B2, “Drug delivery system” (Indian Institute of Technology, Bombay, priority 2016, dated 2021)
Where a name gives a salt, the structure may show the parent alone.

Test system: KB cells
Assay: Cell migration wound healing assay
Type: cell-based, Human
Details: 10 μM, 9 hours

## CNC(=O)c1cc(Oc2ccc(NC(=O)Nc3ccc(Cl)c(C(F)(F)F)c3)cc2)ccn1 [Sraf, Sorafenib tosylate]
  retardation of migration of KB cells: 30±9%
Control 525±23 μm at 0 h
  width of the wound: 303±27 μm
